Laboratory results reported in patent publication US11464749B2, “Bismuth-thiol compositions and methods of use” (Microbion Corporation, priority 2018, dated 2022).
Converted amounts (≈) assume the structure as drawn. Like-named read-outs stand apart in the source and are kept apart here.

Columns and labels:
Klebsiella pneumoniae = test: Broth microdilution MIC (Example 12)
Burkholderia spp. = test: organism not typed; format: cell-based; conditions: during FIC testing; B. multivorans isolate 1795 (MEM-I, CIP-R)
B. cenocepacia = test: Broth microdilution MIC (Example 10); conditions: initial MIC testing
P. aeruginosa = test: MIC against CF bacterial strains (Example 5); conditions: Pseudomonas aeruginosa
[1] = tested on: P. aeruginosa and A. baumannii; test: Broth microdilution MIC (Example 11); conditions: read-out: MIC values
S. aureus ATCC 29213 = test: Broth microdilution MIC, ATCC QC organism (Example 12); conditions: Staphylococcus aureus, ATCC29213
[2] = tested on: B. cenocepacia (B cepacia complex); test: MIC against CF bacterial strains (Example 5); conditions: Burkholderia cenocepacia
Achromobacter spp. = test: MIC against CF bacterial strains (Example 5)
C. glabrata = test: Broth microdilution MIC, yeast (Example 11); format: cell-based; conditions: Nakaseomyces glabratus, FLU^R
E. faecium = test: Broth microdilution MIC (Example 11); conditions: Enterococcus faecium, VRE, VRE vanA Lev^R Cip^R Ery^R
M. avium = test: MIC against CF bacterial strains (Example 5); format: cell-based, Mycobacterium avium
Procedure: A range of CF-isolated strains of Mycobacterium avium and Mycobacterium abscessus were included; which allows for understanding of the activity against non-tubercular Mycobacteria (NTM). Two distinct bismuth-thiol compounds were evaluated, including BisEDT and BisBDT. […] The CF-isolates of greater clinical relevance, including both M abscessus spp. and Burkholderia spp., were both consistently found to be much more susceptible to BisEDT and BisBDT.

Enterococcus spp. = test: Broth microdilution MIC (Example 11); conditions: read-out: MIC values
Candida krusei = test: Broth microdilution antifungal susceptibility (Example 13); format: cell-based; conditions: Pichia kudriavzevii
Pseudomonas aeruginosa = conditions: P. aeruginosa MMX 103 (ATCC 27853); CLSI QC ranges shown in parenthesis; cited from earlier work

For `C[C@@H](O)[C@H]1C(=O)N2C(C(=O)O)=C(S[C@@H]3CN[C@H](C(=O)N(C)C)C3)[C@H](C)[C@H]12` [MEM], which MIC (Klebsiella pneumoniae; K. pneumoniae ATCC BAA-1705, ESBL/KPC) is on record?
Its MIC is 8 µg/mL (≈ 20.9 µM).

And the MIC (Klebsiella pneumoniae; K. pneumoniae CDC 112, KPC)?
The MIC was greater than 8 µg/mL.

And the MIC (Klebsiella pneumoniae; K. pneumoniae CDC 113, ESBL/KPC)?
Its MIC is greater than 8 µg/mL.

What about the MIC (Klebsiella pneumoniae; K. pneumoniae CDC 115, ESBL/KPC) of the same molecule?
Its MIC is greater than 8 µg/mL.

And the MIC (Klebsiella pneumoniae; K. pneumoniae CDC 120, ESBL/KPC)?
Its MIC is greater than 8 µg/mL.

What about the MIC (Klebsiella pneumoniae; K. pneumoniae CDC 126, ESBL/KPC) of the same molecule?
Its MIC is 4 µg/mL (≈ 10.4 µM).

And the MIC (Klebsiella pneumoniae; K. pneumoniae CDC 129, ESBL/KPC)?
The MIC was 8 µg/mL (≈ 20.9 µM).

And the MIC (Klebsiella pneumoniae; K. pneumoniae CDC 135, ESBL/VIM)?
Its MIC is 1 µg/mL (≈ 2.61 µM).

And the MIC (Klebsiella pneumoniae; K. pneumoniae CDC 138, ESBL/NDM)?
Its MIC is greater than 8 µg/mL.

And the MIC (Klebsiella pneumoniae; K. pneumoniae CDC 158, ESBL/NDM/OXA)?
The MIC was greater than 8 µg/mL.

What about the MIC (Klebsiella pneumoniae; K. pneumoniae MMX 9029, ESBL) of the same molecule?
Its MIC is 0.015 µg/mL (≈ 0.0391 µM).

What about the MIC (Burkholderia spp.) of the same molecule?
Its MIC is 4 µg/mL.

And the MIC (B. cenocepacia; B. cenocepacia isolate 0548 (CIP-R))?
Its MIC is 4 µg/mL (≈ 10.4 µM).

What about the MIC (B. cenocepacia; B. cenocepacia isolate 0813 (CPI-I)) of the same molecule?
Its MIC is 2 µg/mL (≈ 5.22 µM).

What about the MIC (B. cenocepacia; B. cenocepacia isolate 1631) of the same molecule?
Its MIC is 4 µg/mL (≈ 10.4 µM).

And the MIC (B. cenocepacia; B. cenocepacia isolate 1783)?
Its MIC is 4 µg/mL (≈ 10.4 µM).

What about the MIC (B. cenocepacia; B. cenocepacia isolate 8555) of the same molecule?
The MIC was 4 µg/mL (≈ 10.4 µM).

Which MIC (Klebsiella pneumoniae; Klebsiella pneumoniae, ATCCBAA1705, K. pneumoniae ATCC BAA-1705, ESBL/KPC) does the source give for `CC(S)C(C)S.[Bi]` (stereo not shown) [BisBDT, bismuth-2,3-butanedithiol] here?
The MIC was 1 µg/mL.

And the MIC (Klebsiella pneumoniae; Klebsiella pneumoniae, ATCCBAA1705, K. pneumoniae ATCC BAA-1705, QC organism (Table 102))?
The MIC was 1 µg/mL.

What about the MIC (Klebsiella pneumoniae; Klebsiella pneumoniae, K. pneumoniae CDC 112, KPC) of the same molecule?
Its MIC is 2 µg/mL.

What about the MIC (Klebsiella pneumoniae; Klebsiella pneumoniae, K. pneumoniae CDC 113, ESBL/KPC) of the same molecule?
The MIC was 1 µg/mL.

And the MIC (Klebsiella pneumoniae; Klebsiella pneumoniae, K. pneumoniae CDC 115, ESBL/KPC)?
The MIC was 2 µg/mL.

And the MIC (Klebsiella pneumoniae; Klebsiella pneumoniae, K. pneumoniae CDC 120, ESBL/KPC)?
Its MIC is 2 µg/mL.

What about the MIC (Klebsiella pneumoniae; Klebsiella pneumoniae, K. pneumoniae CDC 126, ESBL/KPC) of the same molecule?
Its MIC is 2 µg/mL.

And the MIC (Klebsiella pneumoniae; Klebsiella pneumoniae, K. pneumoniae CDC 129, ESBL/KPC)?
The MIC was 4 µg/mL.

And the MIC (Klebsiella pneumoniae; Klebsiella pneumoniae, K. pneumoniae CDC 135, ESBL/VIM)?
Its MIC is 4 µg/mL.

And the MIC (Klebsiella pneumoniae; Klebsiella pneumoniae, K. pneumoniae CDC 138, ESBL/NDM)?
Its MIC is 2 µg/mL.

And the MIC (Klebsiella pneumoniae; Klebsiella pneumoniae, K. pneumoniae CDC 158, ESBL/NDM/OXA)?
The MIC was 2 µg/mL.

What about the MIC (Klebsiella pneumoniae; Klebsiella pneumoniae, K. pneumoniae MMX 9029, ESBL) of the same molecule?
The MIC was 2 µg/mL.

And the MIC (P. aeruginosa; strain AGR1)?
Its MIC is 1 µg/mL.

And the MIC (P. aeruginosa; strain AGR14, Multi-drug resistant)?
The MIC was 1 µg/mL.

And the MIC (P. aeruginosa; strain MR14, Multi-drug resistant)?
The MIC was 1 µg/mL.

What about the MIC [1] of the same molecule?
The MIC was 0.5 to 2 µg/mL.

And the MIC (S. aureus ATCC 29213)?
Its MIC is 0.12 µg/mL.

What about the MIC [2] of the same molecule?
Its MIC is 4 µg/mL.

What about the MIC (Achromobacter spp.) of the same molecule?
Its MIC is 0.5 µg/mL.

And the MIC (Achromobacter spp.; Achromobacter)?
Its MIC is 1 µg/mL.

What about the MIC (C. glabrata; 24 h, C. glabrata MMX 7086) of the same molecule?
Its MIC is 0.5 µg/mL.

And the MIC (C. glabrata; 24 h, C. glabrata MMX 7318)?
The MIC was 0.25 µg/mL.

And the MIC (C. glabrata; 48 h, C. glabrata MMX 7086)?
Its MIC is 1 µg/mL.

What about the MIC (C. glabrata; 48 h, C. glabrata MMX 7318) of the same molecule?
Its MIC is 0.5 µg/mL.

And the MIC (E. faecium; E. faecium MMX 485)?
Its MIC is 0.5 µg/mL.

What about the MIC (E. faecium; E. faecium MMX 752) of the same molecule?
Its MIC is 1 µg/mL.

What about the MIC (M. avium; Mycobacterium avium) of the same molecule?
Its MIC is greater than 16 µg/mL.

And the MIC (M. avium; strain MAC101, MAC reference strain, blood isolate from HIV patient)?
The MIC was 1 µg/mL.

What about the MIC (Enterococcus spp.) of the same molecule?
Its MIC is 0.25 to 1 µg/mL.

What about the MIC (Candida krusei; ATCC6258, read-out: MIC0 (complete inhibition)) of the same molecule?
Its MIC is 1 µg/mL.

And the MIC (Candida krusei; ATCC14243, read-out: MIC0 (complete inhibition))?
Its MIC is 1 µg/mL.

What about the MIC (Candida krusei; ATCC96685, read-out: MIC2 (50% inhibition)) of the same molecule?
The MIC was 0.25 µg/mL.

What about the MIC (Candida krusei; read-out: MIC2 (50% inhibition)) of the same molecule?
Its MIC is 1 µg/mL.

And the MIC (Candida krusei; read-out: MIC0 (complete inhibition))?
Its MIC is 2 µg/mL.

With `C[C@@H](O)[C@H]1C(=O)N2C(C(=O)O)=C(S[C@@H]3CN[C@H](C(=O)N(C)C)C3)[C@H](C)[C@H]12` [Meropenem, reference compound] as the molecule, how does the “CLSI QC range of MIC” value (Pseudomonas aeruginosa) read?
The value was “(0.25-1) μg/mL”.
